Data taken from patent US12653896B2, “Targeted dendrimer conjugates” (Starpharma Pty Ltd, priority 2019, dated 2026).

How the values were obtained:
MDA-MB-231 cells = assay: In vitro association study (flow cytometry, Cy5), MDA-MB-231; assay type: cell-based, human
Protocol: (§1) MDA-MB-231, MDA-MB-231/HER2 (HER2 knock in) (as described above), or SKOV-3 cells were seeded in a 24-well plate (1×10^5 cells per well) in 500 μL of appropriate growth media with the addition of 10% (v/v) fetal bovine serum (FBS) and incubated with compound 36 or 41 at 3.33 nM, […] atmosphere. After incubation, non-binding/non-associating particles were removed from adherent cells by gently washing with DPBS three times (300 μL/well). Cells were removed from plates by treatment with TrypLE™ Express Enzyme (1×), no phenol red (150 μL/well) for 5-10 min at room temperature. The plates were then placed on ice. Cellular binding and association of sample were then determined through flow cytometry by the acquisition of the signal from Cy5.

MDA-MB-453 cells = assay: Cell association by flow cytometry (Cy5), MDA-MB-453; assay type: cell-based, human; conditions: for Mean Fluorescence Intensity (Cy5), MFI: MDA-MB-453, 1 hour on ice, triplicate wells; for binding to HER2-positive MDA-MB-453 cells: result in words
Protocol: The HER2-expressing human metastatic carcinoma cell line MDA-MB-453 (ATCC HTB-131) and the HER2-negative epithelial adenocarcinoma cell line MDA-MB-231 (ATCC HTB-26) were maintained in Dulbecco's Modified Eagle's Medium (DMEM) containing 10% FBS and penicillin-streptomycin (100 U/mL) at 37° C. under a 5% CO2 humidified atmosphere and subcultured prior to confluence using trypsin. Human adenocarcinoma ovary cell line SKOV-3 (ATCC® HTB-77) cells were maintained in RPMI media with the addition of 10% (v/v) FBS and penicillin-streptomycin (100 U/mL) at 37° C. in a 5% CO2 humidified atmosphere and subcultured prior to confluence.
For measurement of cell association by flow cytometry, cells in suspension were added at 1×10^5 cells per well to a 96 well assay plate. Following incubation with nanobody-dendrimer or unconjugated dendrimer for 1 hour on ice, cells were washed three times with 200 ul of DMEM containing 10% FBS to remove unbound dendrimer. Cells were then resuspended in chilled Fluorobrite media supplemented with 10% FBS and Cy5 fluorescence measured using 642 nm excitation and emission collected between 661-691 nm. To measure internalisation kinetics, nanobody-dendrimer was incubated with cells for 24, 4, 1, 0.5 and 0.1 hours at 37° C. before unbound nanobody-dendrimer was removed by washing and analysed by flow cytometry.

MDA-MB-231/HER2 cells = assay: In vitro association study (flow cytometry, Cy5), MDA-MB-231/HER2; assay type: cell-based, human
Protocol: as §1

ErbB2-ECD = biological target: T1, ErbB2-ECD (Homo sapiens, UniProt P04626); assay: SPR binding to immobilized ErbB2-ECD; conditions: result in words
T1 construct: Direct Immobilization of ErbB2-ECD
Protocol: Using a ProteOn XPR36 instrument, ErbB2-ECD was immobilized at 25° C. onto a GLC sensor chip surface (Bio-Rad), with HBS-P+ running buffer (10 mM HEPES, pH 7.4, 150 mM NaCl, 0.05% Tween 20). Standard amine coupling methodology described in Bio-Rad's amine coupling kit was utilized for this immobilization. Lane 1 was activated with a 50:50 mixture of EDC (0.5 mM) and sulfo-NHS (0.125 mM). ErbB2 protein was diluted to […] in 10 mM sodium acetate, pH 5.0 and injected over the activated surface channel. Any remaining activated sites were blocked with 1 M ethanolamine-HCl, pH 8.5.
All SPR binding experiments were performed at 25° C. using HBS-EP+/BSA (10 mM HEPES, pH 7.4, 150 mM NaCl, 3 mM EDTA, 0.05% Tween20, 0.1 mg/ml BSA) as the instrument running buffer (RB). Following immobilization procedures, various concentrations of anti-ErbB2 affibodies and their MMAE-dendrimer conjugates were injected at 60 μl/min over immobilized ErbB2 proteins and their association monitored for 90 sec. Running buffer was subsequently injected over bound Ab-ErbB2 complexes and dissociation monitored for up to 60 min. […] All binding measurements were performed in triplicate.
Collected experimental data were processed using Scrubber-Pro software (www.biologic.com.au). […]

Substance	Mean fluorescence intensity (MDA-MB-231 cells; MDA-MB-231, 1 h)	Mean fluorescence intensity (MDA-MB-231 cells; MDA-MB-231, 2 h)	Mean fluorescence intensity (MDA-MB-231 cells; MDA-MB-231, 4 h)	Mean fluorescence intensity (MDA-MB-231 cells; MDA-MB-231, 24 h)	Mean Fluorescence Intensity (Cy5), MFI (MDA-MB-453 cells)	binding to HER2-positive MDA-MB-453 cells (MDA-MB-453 cells)	Mean fluorescence intensity (MDA-MB-231/HER2 cells; MDA-MB-231/HER2, 1 h)	Percent of cellular association (MDA-MB-231/HER2 cells; MDA-MB-231/HER2, 1 h) [%]	Mean fluorescence intensity (MDA-MB-231/HER2 cells; MDA-MB-231/HER2, 2 h)	Mean fluorescence intensity (MDA-MB-231/HER2 cells; MDA-MB-231/HER2, 4 h)	Mean fluorescence intensity (MDA-MB-231/HER2 cells; MDA-MB-231/HER2, 24 h)	binding to ErbB2 (ErbB2-ECD)	further results
(MeTzPh)PEG4CO-NHPEG24CO—[N(PN)2][Lys]8[((α-NHCy5)1(α-NHAc)7)(ε-NH-COPEG1100)8] [Compound 37]	258.3 ± 19.6	256.7 ± 24.8	221.3 ± 3.5	215.3 ± 4.9	3.097 ± 0.01	did not bind	293.0 ± 8.5	2.47 ± 0.81	268.0 ± 11.3	241.5 ± 17.7	206.0 ± 2.8		Percent of cellular association (MDA-MB-231 cells; MDA-MB-231, 1 h): 1.10 ± 0.35%; Percent of cellular association (MDA-MB-231 cells; MDA-MB-231, 2 h): 1.23 ± 0.47%
Azido-PEG24CO—[N(PN)2][Lys]8[(α-NH-Glu-Val-Cit-PAB-MMAE)8(ε-NH-COPEG1100)8] [Compound 20]												No binding	
Azido-PEG24CO—[N(PN)2[Lys]8[(α-NH-Glu-Val-Cit-PAB-MMAE)8(ε-NH-COPEG2000)8] [Compound 21]												No binding	
(MeTzPh)PEG4CO-NHPEG24CO—[N(PN)2][Lys]16[((α-NHCy5)1(α-NHAc)15)(ε-NH-COPEG1100)16] [Compound 38]	239.3 ± 1.2	230.7 ± 2.3	217.3 ± 3.2	195.7 ± 0.6	6.827 ± 0.07	did not bind	269.0 ± 19.8	0.90 ± 0.35	225.0 ± 5.7	198.0 ± 2.8	175.5 ± 0.7		Percent of cellular association (MDA-MB-231/HER2 cells; MDA-MB-231/HER2, 2 h): 0.50 ± 0.10%; Percent of cellular association (MDA-MB-231/HER2 cells; MDA-MB-231/HER2, 4 h): 0.50 ± 0.35%; Percent of cellular association (MDA-MB-231/HER2 cells; MDA-MB-231/HER2, 24 h): 0.37 ± 0.15%
BHALys[Lys]2[Lys]4[((α-NH-COPEG24NH-COPEG4(PhTzMe/TCO-PEG3NH-COPEG24NH-Glu-DBCO))1(α-Lys(α-NHCy5)(ε-NHDFO))1(α-NH2)2)(ε-NH-COPEG1000)4] [Compound 82]													cellular association value (DFO/Cy5 BHA dendrimers; quantity not named, table stands under 'Percent of cellular association') (MDA-MB-231 cells; MDA-MB-231, 0.5 h): 23.3 ± 3.98; cellular association value (DFO/Cy5 BHA dendrimers; quantity not named, table stands under 'Percent of cellular association') (MDA-MB-231/HER2 cells; MDA-MB-231/HER2, 0.5 h): 14.83 ± 1.60
